Reference: patent EP0106335B1, “Pharmaceutical composition and a method for enhancing the absorption of a pharmaceutically active compound” (Tanabe Seiyaku Co., Ltd., priority 1982, dated 1984)

Assay: Absorption enhancing effect of co-administered diltiazem hydrochloride on plasma drug concentration after oral administration (Experiment 1)
Format: in vivo
Details: male beagle dogs fasted for 24 hours
Procedure: Male beagle dogs (body weight: 12 to 14 kg; one group: 3 to 8 beagle dogs) fasted for 24 hours were used in each groups. A drug having an absolute bioavailability of not more than 20 % and diltiazem hydrochloride were administered orally to the beagle dogs. After one week intervals, the drug only was administered orally to the same beagle dogs. The plasma drug concentration was examined at intervals by TCL densito metry if the drug was timepidium bromide; or by high-peformance liquid chromatography if the drug was tipepidine hibenzate or carbazochrome sodium sulfate. Based on the results obtained above, the absorption enhancing effect of diltiazem hydrochloride was calculated by the following formula; [formula]

## COC1CC(=C(c2cccs2)c2cccs2)C[N+](C)(C)C1 (stereo not drawn) [Timepidium bromide, 1,1-dimethyl-5-methoxy-3-(dithien-2-yl-methylene)-piperidinium halide]
Drug 300 mg with diltiazem hydrochloride 30 mg versus drug only, plasma drug concentration by TLC densitometry
  Absorption enhancing effect: 2.3

## CN1CCCC(=C(c2cccs2)c2cccs2)C1 [Tipepidine hibenzate, 3-(di-2-thienylmethylene)-1-methylpiperidine]
Drug 50 mg with diltiazem hydrochloride 60 mg versus drug only, plasma drug concentration by high-performance liquid chromatography
  Absorption enhancing effect: 2.1

## CN1C2=CC(=O)C(=NNC(N)=O)C=C2CC1S(=O)(=O)O (stereo not drawn) [Carbazochrome sodium sulfonate, 1-methyl-5-semicarbazono-6-oxo-2,3,5,6-tetrahydroindole-2-sulfonic acid]
Drug 100 mg with diltiazem hydrochloride 60 mg versus drug only, plasma drug concentration by high-performance liquid chromatography
  Absorption enhancing effect: 1.9
